Laboratory results as given in US9566312B2, “Cyclic peptides and use as medicines” (priority 2012, dated 2017).
Read-outs that look alike come from different tables or passages of the source. Starred links: 1 amine or outer side, 2 acyl side, 3 side chain; linkers in the order of their positions; H or OH if unused. Non-standard residues stand in square brackets, D forms with d. Residues, ends and D or L forms follow the SMILES beside them. X7 = C[C@H](COCCN1CCS(=O)(=O)CC1)[C@@H](C(=O)[*:2])N(C)[*:1]; X79 = COCCN1CCN(CC[C@@H](C)[C@@H](C(=O)[*:2])N(C)[*:1])CC1; X19 = COCCN1CCN(C[C@H](C)[C@@H](C(=O)[*:2])N(C)[*:1])CC1; NMe(dihydroBmt) = CCCC[C@@H](C)[C@@H](O)[C@H](NC)C(=O)O; X14 = C[C@H](CN1CCN(C)CC1)[C@@H](C(=O)[*:2])N(C)[*:1]; X18 = C[C@H](CCC(C)(C)O)[C@@H](C(=O)[*:2])N(C)[*:1]; X9 = C[C@@H](CN1CCOCC1)[C@@H](C(=O)[*:2])N(C)[*:1]; MeBmt = C/C=C/C[C@@H](C)[C@@H](O)[C@H](NC)C(=O)O; X13 = C[C@H](CC#N)[C@@H](C(=O)[*:2])N(C)[*:1]; X24 = C[C@H](CO)[C@@H](C(=O)[*:2])N(C)[*:1]; NMeL = CN[C@@H](CC(C)C)C(=O)O; NMeV = CN[C@H](C(=O)O)C(C)C; dNMeA = CN[C@H](C)C(=O)O; Abu = CC[C@H](N)C(=O)O

Legend:
cyclophilin A (CypA) = cyclophilin A (CypA) (Homo sapiens (Human), UniProt P62937); assay: Inhibitor binding to cyclophilin proteins by SPR, CypA; design: unit not given here; settings: 1:1 binding model;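 further: Single-cycle kinetics on a Biacore T200, compound injected at several concentrations for 1 min each at 50 µL/min, then 10 min dissociation, in HEPES pH 7.4 buffer with 3% DMSO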
Chain of cyclophilin A (CypA) (P62937 whole entry): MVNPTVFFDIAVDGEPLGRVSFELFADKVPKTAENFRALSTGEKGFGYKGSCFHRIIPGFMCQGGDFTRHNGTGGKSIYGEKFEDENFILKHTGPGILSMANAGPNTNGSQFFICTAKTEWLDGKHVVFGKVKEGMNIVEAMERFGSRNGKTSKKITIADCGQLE

cyclophilin B (CypB) = cyclophilin B (CypB) (Homo sapiens (Human), UniProt P23284); assay: Inhibitor binding to cyclophilin proteins by SPR, CypB; design: unit not given here; settings: 1:1 binding model
Chain of cyclophilin B (CypB) (P23284 34-216): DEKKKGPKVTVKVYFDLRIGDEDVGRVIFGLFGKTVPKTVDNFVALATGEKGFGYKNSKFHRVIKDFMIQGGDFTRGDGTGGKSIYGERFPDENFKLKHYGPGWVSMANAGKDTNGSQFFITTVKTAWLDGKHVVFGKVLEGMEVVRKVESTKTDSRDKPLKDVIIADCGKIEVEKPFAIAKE
Outline: (§1)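 Mono-biotinylated avi-tagged cyclophilins were captured on a Biotin CAPture chip and compound injected by single-cycle kinetics in 10 mM HEPES pH 7.4, 150 mM NaCl, 0.05% P20, 3% DMSO. Contact 1 min per concentration at 50 μL/min, 10 min final dissociation; 1:1 model fit gave kon, koff, KD.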

CypF = CypF (Homo sapiens (Human), UniProt P30405); assay: Inhibitor binding to cyclophilin proteins by SPR, CypF; settings: 1:1 binding model
Chain of CypF (P30405 30-207): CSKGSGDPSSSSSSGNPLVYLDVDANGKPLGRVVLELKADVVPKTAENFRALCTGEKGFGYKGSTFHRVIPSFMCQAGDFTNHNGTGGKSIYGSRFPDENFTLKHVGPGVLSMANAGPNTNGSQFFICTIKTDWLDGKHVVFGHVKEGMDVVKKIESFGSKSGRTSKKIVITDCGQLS
Outline: as §1

Human MRP2 = Human MRP2 (Homo sapiens (Human), UniProt Q92887); assay: MRP2 transporter vesicle assay; type: in vitro ADME
Chain of Human MRP2 (Q92887 whole entry): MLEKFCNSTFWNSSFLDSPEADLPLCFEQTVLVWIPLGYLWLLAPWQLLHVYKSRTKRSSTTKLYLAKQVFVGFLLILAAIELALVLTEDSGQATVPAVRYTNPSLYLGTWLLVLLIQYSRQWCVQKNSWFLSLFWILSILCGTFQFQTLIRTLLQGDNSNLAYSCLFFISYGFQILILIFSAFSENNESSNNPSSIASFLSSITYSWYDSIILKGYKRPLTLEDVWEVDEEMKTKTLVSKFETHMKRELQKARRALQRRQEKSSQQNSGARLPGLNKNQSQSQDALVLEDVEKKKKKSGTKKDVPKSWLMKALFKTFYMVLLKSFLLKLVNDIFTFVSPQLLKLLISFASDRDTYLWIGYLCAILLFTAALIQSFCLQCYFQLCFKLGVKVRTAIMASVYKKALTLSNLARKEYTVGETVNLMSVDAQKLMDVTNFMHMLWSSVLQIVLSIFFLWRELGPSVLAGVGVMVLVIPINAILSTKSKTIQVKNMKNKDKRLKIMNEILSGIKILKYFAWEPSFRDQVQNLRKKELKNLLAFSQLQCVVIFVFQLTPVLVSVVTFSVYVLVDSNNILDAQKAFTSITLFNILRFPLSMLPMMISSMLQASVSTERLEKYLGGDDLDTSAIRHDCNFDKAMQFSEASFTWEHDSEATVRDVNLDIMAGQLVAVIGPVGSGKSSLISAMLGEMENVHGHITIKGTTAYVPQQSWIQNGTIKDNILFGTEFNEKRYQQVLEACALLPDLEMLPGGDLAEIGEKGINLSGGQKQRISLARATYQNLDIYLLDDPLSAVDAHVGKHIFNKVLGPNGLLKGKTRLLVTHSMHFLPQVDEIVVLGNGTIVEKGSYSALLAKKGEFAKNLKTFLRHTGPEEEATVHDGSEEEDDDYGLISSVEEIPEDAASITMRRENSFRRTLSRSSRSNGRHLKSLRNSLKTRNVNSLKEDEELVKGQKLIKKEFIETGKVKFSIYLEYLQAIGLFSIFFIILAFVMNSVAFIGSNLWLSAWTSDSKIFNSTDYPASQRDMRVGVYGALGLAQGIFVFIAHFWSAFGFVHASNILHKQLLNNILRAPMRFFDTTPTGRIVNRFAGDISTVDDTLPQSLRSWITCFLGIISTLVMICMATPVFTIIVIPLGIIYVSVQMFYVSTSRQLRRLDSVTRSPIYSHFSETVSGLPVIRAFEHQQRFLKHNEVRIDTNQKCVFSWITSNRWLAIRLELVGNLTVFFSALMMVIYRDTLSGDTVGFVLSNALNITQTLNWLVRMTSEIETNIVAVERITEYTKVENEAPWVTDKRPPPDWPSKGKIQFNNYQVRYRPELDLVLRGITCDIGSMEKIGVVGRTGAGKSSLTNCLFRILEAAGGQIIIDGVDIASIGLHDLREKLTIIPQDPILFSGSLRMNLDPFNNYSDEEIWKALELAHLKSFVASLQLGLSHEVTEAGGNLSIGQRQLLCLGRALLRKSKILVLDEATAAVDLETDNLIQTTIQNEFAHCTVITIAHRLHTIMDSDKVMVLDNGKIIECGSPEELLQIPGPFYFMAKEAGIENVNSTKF
Experimental: Method 4: Measuring Hepatic Transporter Interactions […] […] MRP2 Assay: Human MRP2 inhibition was tested using a BD Gentest Transporter Vesicle Assay Kit. Inside-out vesicles were prepared from insect Sf9 cells infected with baculovirus expressing hMRP2. […] The percent remaining of ATP dependent uptake activity was calculated as uptake activity in the presence of inhibitor divided by the uptake activity in the absence of inhibitor.

[1] = molecular target: organic anion transporting polypeptide 1B1 (OATP1B1) (Homo sapiens (Human), UniProt Q9Y6L6); assay: OATP assay in CHO-OATP1B1 cells;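 further: inhibition of probe substrate uptake into the cells, ten minutes exposure, accumulated substrate read by fluorescence once cells were lysed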
Chain of organic anion transporting polypeptide 1B1 (OATP1B1) (Q9Y6L6 whole entry): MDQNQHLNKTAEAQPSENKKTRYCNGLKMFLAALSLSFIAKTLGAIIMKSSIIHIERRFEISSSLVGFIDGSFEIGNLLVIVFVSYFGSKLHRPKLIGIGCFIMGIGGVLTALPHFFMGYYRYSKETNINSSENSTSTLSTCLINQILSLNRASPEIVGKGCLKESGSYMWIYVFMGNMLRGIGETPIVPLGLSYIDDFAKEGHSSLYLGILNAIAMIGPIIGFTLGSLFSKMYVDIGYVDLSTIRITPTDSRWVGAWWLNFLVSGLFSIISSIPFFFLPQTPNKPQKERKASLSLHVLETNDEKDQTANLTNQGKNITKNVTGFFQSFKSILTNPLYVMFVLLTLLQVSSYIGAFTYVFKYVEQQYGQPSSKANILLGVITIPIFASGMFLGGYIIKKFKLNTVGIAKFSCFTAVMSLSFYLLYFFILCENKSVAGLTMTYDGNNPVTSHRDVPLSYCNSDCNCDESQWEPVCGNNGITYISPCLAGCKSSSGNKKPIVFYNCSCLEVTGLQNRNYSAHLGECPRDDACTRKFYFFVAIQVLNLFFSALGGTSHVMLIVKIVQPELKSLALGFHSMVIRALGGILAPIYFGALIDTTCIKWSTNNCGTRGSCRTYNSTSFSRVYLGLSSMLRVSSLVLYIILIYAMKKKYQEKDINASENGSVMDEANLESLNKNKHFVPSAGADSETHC

[2] = test system: genotype 1b subgenomic HCV replicon in Huh7.5 cells; type: cell-based, hepatitis C virus; settings: read-out: RPLN-1b IC50
Outline: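 Huh7.5 cells carrying genotype 1b subgenomic HCV replicon with renilla luciferase-neomycin reporter, in phenol red-free DMEM without G418. Luciferase measured after 72 h compound exposure relative to DMSO-treated cells; cytotoxicity (CC50) by Cell Titer-Glo.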

[3] = test system: peripheral blood mononuclear cells (PBMC); assay: Anti-proliferative or immunosuppressive activity, BrdU incorporation in PHA-stimulated PBMC; type: cell-based; settings: PHA 3 μg/ml, 60 hour compound treatment; read-out: EMV PBMC IC50
Outline: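 Fresh PBMCs from two donors, 30,000 per well in X-VIVO 15 medium, stimulated with 3 μg/ml PHA to drive T-cell proliferation. Proliferation measured as BrdU incorporation into DNA by BrdU ELISA.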

CYP3A4 = CYP3A4 (Homo sapiens (Human), UniProt P08684); assay: Time-dependent inhibition of CYP3A4;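 further: Two-step in vitro assay, kobs derived from residual CYP3A4 activity versus preincubation time per concentration, then kinact and KI by nonlinear fit of kobs against concentration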
Chain of CYP3A4 (P08684 whole entry): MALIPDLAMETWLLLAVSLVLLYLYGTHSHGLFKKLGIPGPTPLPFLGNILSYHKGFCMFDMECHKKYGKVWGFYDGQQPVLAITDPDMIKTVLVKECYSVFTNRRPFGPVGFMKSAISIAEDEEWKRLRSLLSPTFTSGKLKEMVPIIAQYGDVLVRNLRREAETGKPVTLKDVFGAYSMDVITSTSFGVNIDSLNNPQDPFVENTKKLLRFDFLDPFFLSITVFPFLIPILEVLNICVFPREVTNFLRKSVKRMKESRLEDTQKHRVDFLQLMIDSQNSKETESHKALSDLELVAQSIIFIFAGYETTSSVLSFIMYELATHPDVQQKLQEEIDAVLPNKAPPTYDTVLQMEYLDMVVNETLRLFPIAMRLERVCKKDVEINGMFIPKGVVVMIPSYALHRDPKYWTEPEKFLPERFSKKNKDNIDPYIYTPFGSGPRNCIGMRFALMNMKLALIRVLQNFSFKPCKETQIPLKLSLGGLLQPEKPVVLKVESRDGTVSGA
Experimental: Method 5: Measuring Time-Dependent Inhibition of CYP3A4
The CYP3A4 time dependent inhibition potential of various inhibitors was determined by a two step in vitro assay. […] The inactivation rate constant (kobs) was obtained by plotting the activity remaining over pre-incubation time for each concentration of compound. The maximal inactivation rate (kinact) and the inactivation potency (KI) were calculated by non linear regression analysis of the inactivation rate constant (kobs) versus compound concentrations [I] curve according to the equation kobs=[kinact·[I]]/[KI+[I]]

[4] = genotype 1b replicon, 72 h incubation

For `C/C=C/C[C@@H](C)[C@@H](O)[C@H]1C(=O)N[C@@H](CC)C(=O)N(C)[C@H](C)C(=O)N(C)[C@@H]([C@H](C)COCCN2CCS(=O)(=O)CC2)C(=O)N[C@@H](C(C)C)C(=O)N(C)[C@@H](CC(C)C)C(=O)N[C@@H](C)C(=O)N[C@H](C)C(=O)N(C)[C@@H](CC(C)C)C(=O)N(C)[C@@H](CC(C)C)C(=O)N(C)[C@@H](C(C)C)C(=O)N1C` [Compound 2.8.2] (cyclo(A[dA][NMeL][NMeL][NMeV][MeBmt][Abu][dNMeA][X7]V[NMeL])), the “CypA Kd” value (cyclophilin A (CypA)) was 1.6, the “CypB Kd” value (cyclophilin B (CypB)) was 0.6 and the CypF Kd (CypF) was 0.6 nM. The IC50 (Human MRP2) was 28000 nM and the IC50 [1] was 3000 nM.
For `C/C=C/C[C@@H](C)[C@@H](O)[C@H]1C(=O)N[C@@H](CC)C(=O)N(C)[C@H](C)C(=O)N(C)[C@@H]([C@@H](C)CN2CCOCC2)C(=O)N[C@@H](C(C)C)C(=O)N(C)[C@@H](CC(C)C)C(=O)N[C@@H](C)C(=O)N[C@H](C)C(=O)N(C)[C@@H](CC(C)C)C(=O)N(C)[C@@H](CC(C)C)C(=O)N(C)[C@@H](C(C)C)C(=O)N1C` [Compound 2.17.1, 3-[D-Ala]-4[(2S,3S)-2-Amino-3-methyl-4-morpholin-4-yl-butanoyl]-cyclosporin] (cyclo(A[dA][NMeL][NMeL][NMeV][MeBmt][Abu][dNMeA][X9]V[NMeL])), the “CypA Kd” value (cyclophilin A (CypA)) was 0.6, the “CypB Kd” value (cyclophilin B (CypB)) was 0.4 and the CypF Kd (CypF) was 0.3 nM. It also gave an IC50 [2, 4] of 29 nM, an IC50 [3] of 18000 nM and an IC50 [1] of 3600 nM. The Ki (CYP3A4) was greater than 50000 nM.
`C/C=C/C[C@@H](C)[C@@H](O)[C@H]1C(=O)N[C@@H](CC)C(=O)N(C)[C@H](C)C(=O)N(C)[C@@H]([C@H](C)CCC(C)(C)O)C(=O)N[C@@H](C(C)C)C(=O)N(C)[C@@H](CC(C)C)C(=O)N[C@@H](C)C(=O)N[C@H](C)C(=O)N(C)[C@@H](CC(C)C)C(=O)N(C)[C@@H](CC(C)C)C(=O)N(C)[C@@H](C(C)C)C(=O)N1C` [Compound 2.12, 3-[D-Ala]-4-[(2S,3R)-6-hydroxy-3,6-dimethyl-2-(methylamino)heptanoyl]-cyclosporin] (cyclo(A[dA][NMeL][NMeL][NMeV][MeBmt][Abu][dNMeA][X18]V[NMeL])) was tested, and the “CypA Kd” value (cyclophilin A (CypA)) was 2.1, the “CypB Kd” value (cyclophilin B (CypB)) was 1.1 and the CypF Kd (CypF) was 1.1 nM. For the same compound, the IC50 [2] was 80 nM, the IC50 [3] was 7100 nM and the IC50 [1] was 2200 nM. The Ki (CYP3A4) was greater than 50000 nM.
In the case of `C/C=C/C[C@@H](C)[C@@H](O)[C@H]1C(=O)N[C@@H](CC)C(=O)N(C)[C@H](C)C(=O)N(C)[C@@H]([C@H](C)CCN2CCN(CCOC)CC2)C(=O)N[C@@H](C(C)C)C(=O)N(C)[C@@H](CC(C)C)C(=O)N[C@@H](C)C(=O)N[C@H](C)C(=O)N(C)[C@@H](CC(C)C)C(=O)N(C)[C@@H](CC(C)C)C(=O)N(C)[C@@H](C(C)C)C(=O)N1C` [Compound 2.18.3, 3-[D-Ala]-4-[(2S,3R)-5-(4-(2-methoxyethyl)piperazin-1-yl)-3-methyl-2-(methylamino)pentanoyl]-cyclosporin] (cyclo(A[dA][NMeL][NMeL][NMeV][MeBmt][Abu][dNMeA][X79]V[NMeL])), the “CypA Kd” value (cyclophilin A (CypA)) is reported as 0.9, the “CypB Kd” value (cyclophilin B (CypB)) is reported as 0.6 and the CypF Kd (CypF) is reported as 0.5 nM. For the same compound, the IC50 [2, 4] was 73 nM, the IC50 [3] was 11100 nM and the IC50 [1] was 9100 nM. The Ki (CYP3A4) was greater than 50000 nM.
`C/C=C/C[C@@H](C)[C@@H](O)[C@H]1C(=O)N[C@@H](CC)C(=O)N(C)[C@H](C)C(=O)N(C)[C@@H]([C@H](C)CC#N)C(=O)N[C@@H](C(C)C)C(=O)N(C)[C@@H](CC(C)C)C(=O)N[C@@H](C)C(=O)N[C@H](C)C(=O)N(C)[C@@H](CC(C)C)C(=O)N(C)[C@@H](CC(C)C)C(=O)N(C)[C@@H](C(C)C)C(=O)N1C` [Compound 2.10, 3-[D-Ala]-4-[(2S,3R)-4-cyano-3-methyl-2-(methylamino)butanoyl]-cyclosporin] (cyclo(A[dA][NMeL][NMeL][NMeV][MeBmt][Abu][dNMeA][X13]V[NMeL])) was tested, and the “CypA Kd” value (cyclophilin A (CypA)) was 1.2, the “CypB Kd” value (cyclophilin B (CypB)) was 0.5 and the CypF Kd (CypF) was 0.5 nM. The IC50 [2, 4] was 27 nM, the IC50 [3] was 12900 nM and the IC50 [1] was 900 nM. The Ki (CYP3A4) was greater than 50000 nM.
For `CCCC[C@@H](C)[C@@H](O)[C@H]1C(=O)N[C@@H](CC)C(=O)N(C)[C@H](C)C(=O)N(C)[C@@H]([C@@H](C)CN2CCN(CCOC)CC2)C(=O)N[C@@H](C(C)C)C(=O)N(C)[C@@H](CC(C)C)C(=O)N[C@@H](C)C(=O)N[C@H](C)C(=O)N(C)[C@@H](CC(C)C)C(=O)N(C)[C@@H](CC(C)C)C(=O)N(C)[C@@H](C(C)C)C(=O)N1C` [Compound 2.17.6, 1-dihydro-3-[D-Ala]-4[(2S,3S)-2-Amino-4-[4-(2-methoxy-ethyl)-piperazin-1-yl]-3-methyl-butanoyl]-cyclosporin] (cyclo(A[dA][NMeL][NMeL][NMeV][NMe(dihydroBmt)][Abu][dNMeA][X19]V[NMeL])), the “CypA Kd” value (cyclophilin A (CypA)) was 0.9, the “CypB Kd” value (cyclophilin B (CypB)) was 0.6 and the CypF Kd (CypF) was 0.5 nM. The IC50 [2, 4] was 20 nM, the IC50 [3] was 14600 nM and the IC50 [1] was 3300 nM. The Ki (CYP3A4) was greater than 50000 nM.
With `C/C=C/C[C@@H](C)[C@@H](O)[C@H]1C(=O)N[C@@H](CC)C(=O)N(C)[C@H](C)C(=O)N(C)[C@@H]([C@H](C)CN2CCN(C)CC2)C(=O)N[C@@H](C(C)C)C(=O)N(C)[C@@H](CC(C)C)C(=O)N[C@@H](C)C(=O)N[C@H](C)C(=O)N(C)[C@@H](CC(C)C)C(=O)N(C)[C@@H](CC(C)C)C(=O)N(C)[C@@H](C(C)C)C(=O)N1C` [Compound 2.5.29, 3-[D-Ala]-4-[(2S,3R)-3-methyl-2-(methylamino)-4-(4-methylpiperazin-1-yl)butanoyl]-cyclosporin] (cyclo(A[dA][NMeL][NMeL][NMeV][MeBmt][Abu][dNMeA][X14]V[NMeL])) the “CypA Kd” value (cyclophilin A (CypA)) was 1.5, the “CypB Kd” value (cyclophilin B (CypB)) was 0.7 and the CypF Kd (CypF) was 0.6 nM. For the same compound, the IC50 [2, 4] was 56 nM, the IC50 [3] was 12200 nM and the IC50 [1] was 7900 nM. For the same compound, the Ki (CYP3A4) was greater than 50000 nM.
In the case of `C/C=C/C[C@@H](C)[C@@H](O)[C@H]1C(=O)N[C@@H](CC)C(=O)N(C)[C@H](C)C(=O)N(C)[C@@H]([C@H](C)CO)C(=O)N[C@@H](C(C)C)C(=O)N(C)[C@@H](CC(C)C)C(=O)N[C@@H](C)C(=O)N[C@H](C)C(=O)N(C)[C@@H](CC(C)C)C(=O)N(C)[C@@H](CC(C)C)C(=O)N(C)[C@@H](C(C)C)C(=O)N1C` [Compound 2.5.1, 3-[D-Ala]-4-[(2S,3S)-4-hydroxy-3-methyl-2-(methylamino)butanoyl]-cyclosporin] (cyclo(A[dA][NMeL][NMeL][NMeV][MeBmt][Abu][dNMeA][X24]V[NMeL])), the “CypA Kd” value (cyclophilin A (CypA)) is reported as 4.8, the “CypB Kd” value (cyclophilin B (CypB)) is reported as 3.5 and the CypF Kd (CypF) is reported as 2.2 nM. The IC50 [2, 4] was 400 nM, the IC50 [3] was 6800 nM and the IC50 [1] was 3600 nM. For the same compound, the “NIM TDI, result in words” value (CYP3A4; probe substrate midazolam) was “No TDI”.
In the case of `C/C=C/C[C@@H](C)[C@@H](O)[C@H]1C(=O)N[C@@H](CC)C(=O)N(C)[C@H](C)C(=O)N(C)[C@@H]([C@H](C)CO[C@H]2CCOC2)C(=O)N[C@@H](C(C)C)C(=O)N(C)[C@@H](CC(C)C)C(=O)N[C@@H](C)C(=O)N[C@H](C)C(=O)N(C)[C@@H](CC(C)C)C(=O)N(C)[C@@H](CC(C)C)C(=O)N(C)[C@@H](C(C)C)C(=O)N1C` (stereo in doubt) [Compound 2.16], the “CypA Kd” value (cyclophilin A (CypA)) is reported as 1.0, the “CypB Kd” value (cyclophilin B (CypB)) is reported as 0.5 and the CypF Kd (CypF) is reported as 0.4 nM. It also gave an IC50 [2] of 25 nM, an IC50 [3] of 13700 nM and an IC50 [1] of 1900 nM. It also gave a Ki (CYP3A4) greater than 50000 nM.
